Assay: In vivo testing: tethered device jetting insulin into the stomach wall
Parameters: species or system Yorkshire pigs
Conditions: jet of insulin into stomach wall, 0.5 Units per kilogram, three of the five device tests, samples until two hours after deployment
Description: Studies were performed by trained veterinary technicians at MIT's animal testing facilities. Yorkshire pigs weighing between 70 and 90 kg were used. All studies were terminal studies (meaning the animal was euthanized immediately afterward). […] The testing protocol is described further below.
This formulation procedure was carried out the morning or evening before each in vivo study, and the resulting solution it was stored at 4° C. until the time of administration.
The device was loaded with API and CO2 in the operating room where the animal was sedated and intubated. The device was deployed either by direct placement into the stomach through a laparotomy, or via an over-tube with an endoscope and snare. Of the five deployments performed with this device, the first three were performed by laparotomy, and the latter two by endoscope. Triggering generally occurred within 15 minutes and could be identified through recoil and minor foaming near the base of the device.
Blood samples were collected by ear catheter or femoral catheter. […] The blood-glucose level was monitored at each draw using commercial glucose monitoring strips. […] The samples were then subsequently analyzed with a custom Ezyme-linked immunosorbent assay (ELISA) for […].

In the case of insulin, the blood glucose levels was “drop in blood glucose levels”.

From patent US20230263956A1, “INGESTIBLE DRUG DELIVERY DEVICE” (Massachusetts Institute of Technology, priority 2020, published 2023)
